ChEMBL document CHEMBL2429845, “Design, synthesis, and antimicrobial activity of some novel homodrimane sesquiterpenoids with diazine skeleton” (2013)

Assays:
Micrococcus luteus [1] = test: Antibacterial activity against Sarcina lutea ATCC 9341 at 30 ug/disk after 24 hrs by agar diffusion assay; format: functional; settings: ATCC 9341, 24 h, read-out: DIZ
Escherichia coli [2] = test: Antibacterial activity against Escherichia coli ATCC 25922 at 30 ug/disk after 24 hrs by agar diffusion assay; format: functional; settings: ATCC 25922, 24 h, read-out: DIZ
Bacillus subtilis [3] = test: Antibacterial activity against Bacillus subtilis at 30 ug/disk after 24 hrs by agar diffusion assay; format: functional; settings: read-out: DIZ
Bacillus cereus [4] = test: Antibacterial activity against Bacillus cereus ATCC 14579 at 30 ug/disk after 24 hrs by agar diffusion assay; format: functional; settings: ATCC 14579, 24 h, read-out: DIZ
Staphylococcus aureus [5] = test: Antibacterial activity against Staphylococcus aureus ATCC 25923 at 30 ug/disk after 24 hrs by agar diffusion assay; format: functional; settings: ATCC 25923, 24 h, read-out: DIZ
Pseudomonas aeruginosa [6] = test: Antibacterial activity against Pseudomonas aeruginosa ATCC 27853 at 30 ug/disk after 24 hrs by agar diffusion assay; format: functional; settings: ATCC 27853, 24 h, read-out: DIZ
[Candida] sake [7] = Antifungal activity against Candida sake at 10 mg/ml after 48 hrs by agar diffusion assay; format: functional; settings: Fermentozyma sake, read-out: DIZ
Micrococcus luteus [8] = test: Antibacterial activity against Sarcina lutea ATCC 9341 at 10 mg/ml after 24 hrs by agar diffusion assay; format: functional; settings: ATCC 9341, 24 h, read-out: DIZ
Pseudomonas aeruginosa [9] = test: Antibacterial activity against Pseudomonas aeruginosa ATCC 27853 at 10 mg/ml after 24 hrs by agar diffusion assay; format: functional; settings: ATCC 27853, 24 h, read-out: DIZ
Candida albicans [10] = test: Antifungal activity against Candida albicans ATCC 10231 at 10 mg/ml after 48 hrs by agar diffusion assay; format: functional; settings: ATCC 10231, 48 h, read-out: DIZ
Bacillus cereus [11] = test: Antibacterial activity against Bacillus cereus ATCC 14579 at 10 mg/ml after 24 hrs by agar diffusion assay; format: functional; settings: ATCC 14579, 24 h, read-out: DIZ
Staphylococcus aureus [12] = test: Antibacterial activity against Staphylococcus aureus ATCC 25923 at 10 mg/ml after 24 hrs by agar diffusion assay; format: functional; settings: ATCC 25923, 24 h, read-out: DIZ
Escherichia coli [13] = test: Antibacterial activity against Escherichia coli ATCC 25922 at 10 mg/ml after 24 hrs by agar diffusion assay; format: functional; settings: ATCC 25922, 24 h, read-out: DIZ
Bacillus subtilis [14] = test: Antibacterial activity against Bacillus subtilis at 10 mg/ml after 24 hrs by agar diffusion assay; format: functional; settings: read-out: DIZ
Nakaseomyces glabratus [15] = test: Antifungal activity against Candida glabrata ATCC MYA 2950 at 10 mg/ml after 48 hrs by agar diffusion assay; format: functional; settings: ATCC MYA 2950, 48 h, read-out: DIZ
Staphylococcus aureus [16] = test: Antibacterial activity against Staphylococcus aureus ATCC 25923 at 25 ug/disk after 24 hrs by agar diffusion assay; format: functional; settings: ATCC 25923, 24 h, read-out: DIZ
Pseudomonas aeruginosa [17] = test: Antibacterial activity against Pseudomonas aeruginosa ATCC 27853 at 25 ug/disk after 24 hrs by agar diffusion assay; format: functional; settings: ATCC 27853, 24 h, read-out: DIZ
Bacillus cereus [18] = test: Antibacterial activity against Bacillus cereus ATCC 14579 at 25 ug/disk after 24 hrs by agar diffusion assay; format: functional; settings: ATCC 14579, 24 h, read-out: DIZ
Escherichia coli [19] = test: Antibacterial activity against Escherichia coli ATCC 25922 at 25 ug/disk after 24 hrs by agar diffusion assay; format: functional; settings: ATCC 25922, 24 h, read-out: DIZ
Micrococcus luteus [20] = test: Antibacterial activity against Sarcina lutea ATCC 9341 at 25 ug/disk after 24 hrs by agar diffusion assay; format: functional; settings: ATCC 9341, 24 h, read-out: DIZ
Bacillus subtilis [21] = test: Antibacterial activity against Bacillus subtilis at 25 ug/disk after 24 hrs by agar diffusion assay; format: functional; settings: read-out: DIZ
Candida albicans [22] = test: Antifungal activity against Candida albicans ATCC 10231 at 100 mg/disk after 48 hrs by agar diffusion assay; format: functional, organism-based
Nakaseomyces glabratus [23] = test: Antifungal activity against Candida glabrata ATCC MYA 2950 100 mg/disk after 48 hrs by agar diffusion assay; format: functional, organism-based
[Candida] sake [24] = Antifungal activity against Candida sake 100 mg/disk after 48 hrs by agar diffusion assay; format: functional, organism-based

Compound	zone of inhibition at 10000 µg/mL ([Candida] sake [7])	zone of inhibition at 10000 µg/mL (Micrococcus luteus [8])	zone of inhibition at 10000 µg/mL (Pseudomonas aeruginosa [9])	zone of inhibition at 10000 µg/mL (Candida albicans [10])	zone of inhibition at 10000 µg/mL (Bacillus cereus [11])	zone of inhibition at 10000 µg/mL (Staphylococcus aureus [12])	zone of inhibition at 10000 µg/mL (Escherichia coli [13])	zone of inhibition at 10000 µg/mL (Bacillus subtilis [14])	zone of inhibition at 10000 µg/mL (Nakaseomyces glabratus [15])	also measured
O=C(N[C@H](CO)[C@H](O)c1ccc([N+](=O)[O-])cc1)C(Cl)Cl [CHLORAMPHENICOL]										zone of inhibition at 30 µg/disc (Micrococcus luteus [1]): 30 mm; zone of inhibition at 30 µg/disc (Escherichia coli [2]): 29 mm; zone of inhibition at 30 µg/disc (Bacillus subtilis [3]): 31 mm; zone of inhibition at 30 µg/disc (Bacillus cereus [4]): 28 mm; zone of inhibition at 30 µg/disc (Staphylococcus aureus [5]): 25 mm; zone of inhibition at 30 µg/disc (Pseudomonas aeruginosa [6]): 19 mm
C=C1CC[C@H]2C(C)(C)CCC[C@]2(C)[C@H]1CC(=O)Nc1cnccn1	0 mm	0 mm	0 mm	0 mm	10 mm	15 mm	0 mm	0 mm	0 mm	
CC1(C)S[C@@H]2[C@H](NC(=O)[C@H](N)c3ccccc3)C(=O)N2[C@H]1C(=O)O [AMPICILLIN]										zone of inhibition at 25 µg/disc (Staphylococcus aureus [16]): 25 mm; zone of inhibition at 25 µg/disc (Pseudomonas aeruginosa [17]): 0 mm; zone of inhibition at 25 µg/disc (Bacillus cereus [18]): 0 mm; zone of inhibition at 25 µg/disc (Escherichia coli [19]): 20 mm; zone of inhibition at 25 µg/disc (Micrococcus luteus [20]): 30 mm; zone of inhibition at 25 µg/disc (Bacillus subtilis [21]): 25 mm
C=C1CC[C@H]2C(C)(C)CCC[C@]2(C)[C@H]1CC(=O)Nc1ccncn1	0 mm	18 mm	0 mm	0 mm	10 mm	15 mm	12 mm	7 mm	0 mm	
C=C1CC[C@H]2C(C)(C)CCC[C@]2(C)[C@H]1CC(=O)Nc1ncccn1	0 mm	19 mm	0 mm	0 mm	12 mm	14 mm	10 mm	7 mm	0 mm	
C=C1CC[C@H]2C(C)(C)CCC[C@]2(C)[C@H]1CC(=O)N(C(=O)NC1CCCCC1)C1CCCCC1	0 mm	0 mm	0 mm	0 mm	11 mm	19 mm	0 mm	0 mm	0 mm	
C=C1CC[C@H]2C(C)(C)CCC[C@]2(C)[C@H]1CC(=O)N(C(=O)C[C@H]1C(=C)CC[C@H]2C(C)(C)CCC[C@]12C)c1ncccn1	0 mm	0 mm	10 mm	0 mm	0 mm	10 mm	0 mm	0 mm	0 mm	
NYSTATIN										inhibition zone (IZ) (Candida albicans [22]): 29 mm; inhibition zone (IZ) (Nakaseomyces glabratus [23]): 26 mm; inhibition zone (IZ) ([Candida] sake [24]): 31 mm
